Test results: PubChem BioAssay (NCI)
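Here, GI50 denotes the concentration required for 50% inhibition of growth. At the TGI there is no net growth.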

Legend:
Assay in all cases: NCI tumour cell line growth inhibition, 384-well format
A498 renal = system: A498 renal
RXF 393 renal = system: RXF 393 renal
SF-539 CNS = system: SF-539 CNS
SK-MEL-5 melanoma = system: SK-MEL-5 melanoma
SR leukemia = system: SR leukemia
U251 glioblastoma = system: U251 glioblastoma
HOP-62 NSCLC = system: HOP-62 NSCLC
UACC-62 melanoma = system: UACC-62 melanoma
ACHN renal = system: ACHN renal
A549 NSCLC = system: A549 NSCLC
OVCAR-4 ovarian = system: OVCAR-4 ovarian
SK-MEL-28 melanoma = system: SK-MEL-28 melanoma
RPMI-8226 leukemia = system: RPMI-8226 leukemia
HT29 colon = system: HT29 colon
NCI/ADR-RES ovarian = system: NCI/ADR-RES ovarian
T-47D breast = system: T-47D breast
SNB-75 CNS = system: SNB-75 CNS
MDA-MB-468 breast = system: MDA-MB-468 breast
HCT-116 colon = system: HCT-116 colon
HCT-15 colon = system: HCT-15 colon
TK-10 renal = system: TK-10 renal
DU-145 prostate = system: DU-145 prostate
OVCAR-8 ovarian = system: OVCAR-8 ovarian
M14 melanoma = system: M14 melanoma
MOLT-4 leukemia = system: MOLT-4 leukemia
CAKI-1 renal = system: CAKI-1 renal
HS 578T breast = system: HS 578T breast
MDA-MB-435 melanoma = system: MDA-MB-435 melanoma
NCI-H460 NSCLC = system: NCI-H460 NSCLC
MALME-3M melanoma = system: MALME-3M melanoma
SF-295 CNS = system: SF-295 CNS
NCI-H522 lung = system: NCI-H522 lung
SK-OV-3 ovarian = system: SK-OV-3 ovarian
786-0 renal = system: 786-0 renal
PC-3 prostate = system: PC-3 prostate
SF-268 CNS = system: SF-268 CNS
SK-MEL-2 melanoma = system: SK-MEL-2 melanoma
KM12 colon = system: KM12 colon
NCI-H23 lung = system: NCI-H23 lung
COLO 205 colon = system: COLO 205 colon
SW-620 colon = system: SW-620 colon
HCC-2998 colon = system: HCC-2998 colon
MCF7 breast = system: MCF7 breast
OVCAR-3 ovarian = system: OVCAR-3 ovarian
UACC-257 melanoma = system: UACC-257 melanoma
NCI-H322M lung = system: NCI-H322M lung
NCI-H226 lung = system: NCI-H226 lung
HOP-92 NSCLC = system: HOP-92 NSCLC
SN12C renal = system: SN12C renal
HL-60(TB) leukemia = system: HL-60(TB) leukemia
OVCAR-5 ovarian = system: OVCAR-5 ovarian
BT-549 breast = system: BT-549 breast
SNB-19 CNS = system: SNB-19 CNS
IGROV1 ovarian = system: IGROV1 ovarian
MDA-MB-231 breast = system: MDA-MB-231 breast
K-562 leukemia = system: K-562 leukemia
CCRF-CEM leukemia = system: CCRF-CEM leukemia
EKVX NSCLC = system: EKVX NSCLC

CCn1c(=O)c(-c2ccn[nH]2)cc2c(C)nc(N)nc21
GI50 (A498 renal): 384 nM | TGI (A498 renal): 1970 nM | GI50 (RXF 393 renal): 399 nM | TGI (RXF 393 renal): 1900 nM | GI50 (SF-539 CNS): 2970 nM | TGI (SF-539 CNS): 21500 nM | GI50 (SK-MEL-5 melanoma): 1160 nM | TGI (SK-MEL-5 melanoma): 4000 nM | GI50 (SR leukemia): 1750 nM | TGI (SR leukemia): 5000 nM | GI50 (U251 glioblastoma): 5620 nM | TGI (U251 glioblastoma): 97900 nM | GI50 (HOP-62 NSCLC): 1930 nM | TGI (HOP-62 NSCLC): 11600 nM | GI50 (UACC-62 melanoma): 1560 nM | TGI (UACC-62 melanoma): 10700 nM | GI50 (ACHN renal): 2000 nM | TGI (ACHN renal): 8330 nM | GI50 (A549 NSCLC): 2270 nM | TGI (A549 NSCLC): 9940 nM | GI50 (OVCAR-4 ovarian): 1390 nM | TGI (OVCAR-4 ovarian): 11200 nM | GI50 (SK-MEL-28 melanoma): 1140 nM | TGI (SK-MEL-28 melanoma): 7220 nM | GI50 (RPMI-8226 leukemia): 232 nM | TGI (RPMI-8226 leukemia): 646 nM | GI50 (HT29 colon): 2420 nM | TGI (HT29 colon): > 69500 nM | GI50 (NCI/ADR-RES ovarian): 1580 nM | TGI (NCI/ADR-RES ovarian): 8000 nM | GI50 (T-47D breast): 394 nM | TGI (T-47D breast): 2040 nM | GI50 (SNB-75 CNS): 477 nM | TGI (SNB-75 CNS): 2400 nM | GI50 (MDA-MB-468 breast): 358 nM | TGI (MDA-MB-468 breast): 1570 nM | GI50 (HCT-116 colon): 5310 nM | TGI (HCT-116 colon): > 100000 nM | GI50 (HCT-15 colon): 2360 nM | TGI (HCT-15 colon): > 100000 nM | GI50 (TK-10 renal): 790 nM | TGI (TK-10 renal): 3500 nM | GI50 (DU-145 prostate): 3380 nM | TGI (DU-145 prostate): > 100000 nM | GI50 (OVCAR-8 ovarian): 2750 nM | TGI (OVCAR-8 ovarian): > 60400 nM | GI50 (M14 melanoma): 2200 nM | TGI (M14 melanoma): > 27400 nM | GI50 (MOLT-4 leukemia): 587 nM | TGI (MOLT-4 leukemia): 2160 nM | GI50 (CAKI-1 renal): 663 nM | TGI (CAKI-1 renal): 3780 nM | GI50 (HS 578T breast): 310 nM | TGI (HS 578T breast): 1660 nM | GI50 (MDA-MB-435 melanoma): 2710 nM | TGI (MDA-MB-435 melanoma): 19700 nM | GI50 (NCI-H460 NSCLC): 883 nM | TGI (NCI-H460 NSCLC): 10800 nM | GI50 (MALME-3M melanoma): 456 nM | TGI (MALME-3M melanoma): 2030 nM | GI50 (SF-295 CNS): 1580 nM | TGI (SF-295 CNS): 8640 nM | GI50 (NCI-H522 lung): 671 nM | TGI (NCI-H522 lung): 4230 nM | GI50 (SK-OV-3 ovarian): 562 nM | TGI (SK-OV-3 ovarian): 2930 nM | GI50 ([…]-0 renal): 2910 nM | TGI (786-0 renal): 15700 nM | GI50 (PC-3 prostate): 369 nM | TGI (PC-3 prostate): 2570 nM | GI50 (SF-268 CNS): 1890 nM | TGI (SF-268 CNS): 15600 nM | GI50 (SK-MEL-2 melanoma): 3220 nM | TGI (SK-MEL-2 melanoma): 9870 nM | GI50 (KM12 colon): 3390 nM | TGI (KM12 colon): 38600 nM | GI50 (NCI-H23 lung): 1430 nM | TGI (NCI-H23 lung): > 30200 nM | GI50 (COLO 205 colon): 2240 nM | TGI (COLO 205 colon): 7350 nM | GI50 (SW-620 colon): 3240 nM | TGI (SW-620 colon): 25700 nM | GI50 (HCC-2998 colon): 2190 nM | TGI (HCC-2998 colon): 13900 nM | GI50 (MCF7 breast): 511 nM | TGI (MCF7 breast): > 100000 nM | GI50 (OVCAR-3 ovarian): 853 nM | TGI (OVCAR-3 ovarian): 4460 nM | GI50 (UACC-257 melanoma): 3780 nM | TGI (UACC-257 melanoma): 39400 nM | GI50 (NCI-H322M lung): 2180 nM | TGI (NCI-H322M lung): 10300 nM | GI50 (NCI-H226 lung): 1330 nM | TGI (NCI-H226 lung): 5510 nM | GI50 (HOP-92 NSCLC): 201 nM | TGI (HOP-92 NSCLC): 1310 nM | GI50 (SN12C renal): 1220 nM | TGI (SN12C renal): > 34500 nM | GI50 (HL-60(TB) leukemia): 840 nM | TGI (HL-60(TB) leukemia): 7000 nM | GI50 (OVCAR-5 ovarian): 1010 nM | TGI (OVCAR-5 ovarian): 6830 nM | GI50 (BT-549 breast): 330 nM | TGI (BT-549 breast): 2760 nM | GI50 (SNB-19 CNS): 18100 nM | TGI (SNB-19 CNS): > 100000 nM | GI50 (IGROV1 ovarian): 333 nM | TGI (IGROV1 ovarian): 1210 nM | GI50 (MDA-MB-231 breast): 955 nM | TGI (MDA-MB-231 breast): > 23800 nM | GI50 (K-562 leukemia): 6580 nM | TGI (K-562 leukemia): > 100000 nM | GI50 (CCRF-CEM leukemia): 434 nM | TGI (CCRF-CEM leukemia): 2540 nM | GI50 (EKVX NSCLC): 911 nM | TGI (EKVX NSCLC): 4520 nM
